Data taken from patent US10081662B2, “Modified relaxin B chain peptides” (The Florey Institute of Neuroscience and Mental Health, priority 2014, dated 2018).

Tests used:
[1] = tested on: RM1 mouse prostate tumour cells; test: Prostate tumour growth after injection of RM1 cells into prostates of C57BL/6 mice; format: in vivo; conditions: day 10 after RM1 cells, s.c. mini-pump from day 2, H2 relaxin 0.15, B7-33 C11.23S 0.075 mg/kg/day, vs untreated
Description: (§1) Seven to eight-week old male 129SV mice (which are sensitive to tissue injury and fibrosis) and age-matched female Balb/c mice (which are sensitive to changes in airway hyperresponsiveness) were used for the induction of isoproterenol-induced cardiomyopathy and ovalbumin-induced chronic allergic airways disease, respectively. 16 five week-old male C57BL/6 mice were used in the induction of prostate cancer growth. All animals were obtained from Monash Animal Services (Monash University, Clayton, Victoria, Australia) and housed under standard conditions (maintained on an 12 h light-12 h dark lighting cycle with free access to food and water) in the Department of Pharmacology Animal Room at Monash University.
H2 relaxin can induce prostate and other tumour growth. To measure the effect of B7-33 C11.23S on tumour growth, 16 five week-old male C57BL/6 mice (obtained from Monash Animal Services) were injected with 5000 RM1 (mouse prostate tumor) cells into their prostates to induce tumor growth. One sub-group of mice n=5) was left untreated until day 10 post-RM1 cell administration. […]

[2] = tested on: rat model of myocardial infarction; test: Rat model of myocardial infarction-induced heart failure; format: in vivo; conditions: vs vehicle
Method: Adult male Sprague-Dawley rats weighing 250-320 g were obtained from Animal Resources Centre, Perth, Wash., Australia. The rats were group housed in a constant temperature of 22±1° C. and a relative humidity of 50-60% under a controlled light-dark cycle of 12 hours. Rats were given access to standard laboratory rat chow and drinking water ad libitum.
Heart failure was induced as previously described (Ruchaya et al., 2014, Exp Physiol 99, 111-122). Breifly, to induce heart failure, rats were anaesthetised with an intramuscular injection of ketamine (60 mg/kg) and medetomide hydrochloride ([…]). A left sided thoracotomy through an opening between the fourth and fifth rib was performed, the heart was exteriorised and the left anterior descending coronary artery was ligated. Anaesthesia was reversed with antipamezole hydrocholide (1 mg/kg). Penicillin (1000 U) and buprenorphine (0.05 mg/kg) was administered to aid post-operative recovery. Animals were left to recover from the surgery under a heating source. Rats were individually housed after the surgery.
Eight weeks after myocardial infarction surgery, rats were randomly assigned to 3 groups (vehicle, H2 and B7-33), re-anaesthetised (2-3% isoflurane) and an osmotic mini-pump (model 2ML4, Alzet, Cupertino, Calif.) implanted intraperitoneally. Vehicle (saline), native H2 relaxin (0.5 mg/kg/day) or B7-33 C11.23S (0.5 mg/kg/day) was continuously administered for 28 days. At the conclusion of treatment, rats were anaesthetized (sodium pentobarbitone, 60 mg/kg i.p.) and the left ventricular end-diastolic pressure determined prior to decapitation and removal of the heart for histological analysis.

[3] = tested on: mouse model of OVA-induced chronic allergic airway disease; test: Mouse model of OVA-induced chronic allergic airway disease; format: in vivo; conditions: Balb/c mice
Description: as §1
Twenty-four hours after the last vehicle/drug administration, methacholine-induced airway reactivity was assessed by invasive plethysmography as described before (Locke et al. 2007, Am J Respir Mol Biol 36, 625-632; Royce et al. 2009, Endocrinology 150, 2692-2699). Mice were anaesthetized intraperitoneally with 200 μg/g ketamine and 10 μg/g xylazine. Tracheotomy was performed using an 18-gauge tracheotomy tube and jugular vein cannulated with a 0.61 9 0.28 mm polyethylene tube (Microtube Extrusions, North Rocks, NSW, Australia), Mice were then placed in a plethysmograph chamber (Buxco Research Systems, Wilmington, N.C., USA) where increasing concentrations of acetyl-β-methacholine (from 31.25 μg/kg to 500 μg/kg) were delivered intravenously in five doses. After every dose, airway resistance and compliance were measured (Biosystem XA version 2.7.9; Buxco Electronics Inc, Wilmington, N.C., USA). The change in airway resistance calculated by the maximal resistance after each dose minus baseline resistance (phosphate buffered saline alone) was plotted against each dose of methacholine evaluated.
(§2) The mid zone of the male mouse heart and largest lung lobe from female Balb/c mice were fixed in 10% neutral buffered formalin for 24-48 h before being processed and embedded routinely in paraffin wax. Representative sections of tissue, 3-5 um each, were taken and stained with either picrosirius red (Samuel et al. 2011 Lab Invest 91, 675-690) for the detection of interstitial collagen or Masson's trichrome (Royce et al, 2009, Endocrinology 150, 2692-2699) for the detection of subepithelial basement membrane collagen deposition).
(§3) Changes in picrosirius-red stained interstitial collagen or epithelial thickness and subepithelial collagen (fibrosis) around the airway lumen from Masson's trichrome-stained sections; which were all captured (at ×20 magnification) using a SPOT digital camera (Q Imaging, Burnaby, BC, Canada) and analysed with Image J 1.3 software (National Institutes of Health, Bethesda, Md.). Four to five fields per mid zone of the heart or 4-5 airways (of 150-350 μm in diameter) per mouse were assessed. Epithelial thickness and subepithelial collagen regions were traced with a digital pen and the thickness of each region calculated by the imaging software. Results were expressed as mean thickness ([…]) of the 4-5 airways sampled.
(§4) The apical region of the heart or second largest lung lobe from each mouse was treated as described previously (Samuel C S, et at., 2003, FASEB J 17, 121-123; Royce et at. 2009, Endocrinology 150, 2692-2699) for the determination of hydroxyproline content. Hydroxyproline values were estimated based on a standard curve constructed with serial dilutions of a 0.1 mg/mL stock of trans-4-hydroxyproline-L-proline (Sigma-Aldrich). Hydroxyproline values were then converted to collagen content as detailed previously (Samuel CS, et al. 2004. Endocrinology 145, 4125-4133) and, in turn, divided by the dry weight of each corresponding left ventricular or lung tissue assessed to yield collagen concentration (a measure of fibrosis).
The inventors also tested the fibrosis preventing activity of B7-33 C11.23S in a model of chronic allergic airway disease (AAD). […]

[4] = Solubility of relaxin B chain peptides in aqueous solution; conditions: aqueous solution
[5] = dose printed as 0.5 mg/mg/day; Samuel et al. 2003; cited from earlier work
[6] = tested on: mouse model of isoproterenol (ISO) induced cardiac fibrosis; test: Mouse model of isoproterenol-induced cardiomyopathy (cardiac fibrosis); format: in vivo; conditions: 129SV mice, 14 days, s.c. minipump; relative to isoproterenol treatment
Description: as §1, §2, §3
as §4, with “fibrosis). […]” for “fibrosis).”

Substance: H2 relaxin: Native human relaxin-2: heterodimer of A chain (24 residues) and B1-29 B chain with three disulfide bonds
- Prostate tumour size [1]: significantly increased tumour size
- Percentage of collagen in the interstitial area of the left ventricle ([2]; 0.5 mg/kg/day i.p. mini-pump for 28 days from 8 weeks after MI): significant reduction
- Left ventricular end-diastolic pressure (LVEDP) ([2]; 12 weeks after myocardial infarction): reduced
- Airway hyper-responsiveness (change in airway resistance to methacholine) ([3]; OVA-induced increase, invasive plethysmography, FIG. 8D): attenuated
- Mean airway epithelial thickness ([3]; compared to OVA treatment, FIG. 8B): significantly reduced
- Total lung collagen content (hydroxyproline analysis) ([3]; relative to OVA treatment, FIG. 8C): normalised
- Aqueous solubility (in words) [4]: very soluble
- Circulating levels [5]: 20 to 40 ng/mL
- Percentage of interstitial collagen in the left ventricle (picrosirius red) [6]: significantly reduced
- Total left ventricular collagen concentration (hydroxyproline analysis) [6]: significantly reduced
